Data reported in ChEMBL document CHEMBL5303573, “Mapping human microbiome drug metabolism by gut bacteria and their genes” (Nature, 2019).

conditions: bacteroides fragilis, 12 h, 2 µM
Description: The drug is tested on Bacteroides fragilis strain: DS-208 for biotransformation. The drug concentrations were measured before and after a 12-h incubation by liquid-chromatography-coupled mass spectrometry (LC–MS)

Compound	Bacterial Biotransformation
CC(C)(C(=O)O)c1ccc(C(O)CCCN2CCC(C(O)(c3ccccc3)c3ccccc3)CC2)cc1 (stereo not given) [FEXOFENADINE]	Compound NOT metabolized
C#C[C@]1(OC(C)=O)CC[C@H]2[C@@H]3CCC4=C/C(=N/O)CC[C@@H]4[C@H]3CC[C@@]21CC [NORGESTIMATE]	Compound NOT metabolized
CCCN1C[C@H](CSC)C[C@@H]2c3cccc4[nH]cc(c34)C[C@H]21.CS(=O)(=O)O [PERGOLIDE MESYLATE]	Compound NOT metabolized
C=CCN1CC[C@]23c4c5ccc(O)c4O[C@H]2C(=O)CC[C@@]3(O)[C@H]1C5 [NALOXONE]	Compound metabolized
COC(=O)Nc1nc2ccc(C(=O)c3ccccc3)cc2[nH]1 [MEBENDAZOLE]	Compound metabolized
Cc1ccc(NC(=O)c2ccc(CN3CCN(C)CC3)cc2)cc1Nc1nccc(-c2cccnc2)n1 [IMATINIB]	Compound NOT metabolized
O=C(CCCN1CCC(O)(c2ccc(Cl)cc2)CC1)c1ccc(F)cc1 [HALOPERIDOL]	Compound NOT metabolized

experiment: The drug is tested on Bacteroides fragilis strain: T(B)9 for biotransformation. The drug concentrations were measured before and after a 12-h incubation by liquid-chromatography-coupled mass spectrometry (LC–MS); conditions: 2 µM

Compound	Bacterial Biotransformation
CC(C)(C(=O)O)c1ccc(C(O)CCCN2CCC(C(O)(c3ccccc3)c3ccccc3)CC2)cc1 (stereo not given) [FEXOFENADINE]	Compound NOT metabolized
C#C[C@]1(OC(C)=O)CC[C@H]2[C@@H]3CCC4=C/C(=N/O)CC[C@@H]4[C@H]3CC[C@@]21CC [NORGESTIMATE]	Compound NOT metabolized
COC(=O)Nc1nc2ccc(C(=O)c3ccccc3)cc2[nH]1 [MEBENDAZOLE]	Compound metabolized
Cc1ccc(NC(=O)c2ccc(CN3CCN(C)CC3)cc2)cc1Nc1nccc(-c2cccnc2)n1 [IMATINIB]	Compound NOT metabolized

conditions: clostridioides difficile, 12 h, 2 µM
Description: The drug is tested on Clostridium difficile strain: 120 for biotransformation. The drug concentrations were measured before and after a 12-h incubation by liquid-chromatography-coupled mass spectrometry (LC–MS)

Compound	Bacterial Biotransformation
CC(C)(C(=O)O)c1ccc(C(O)CCCN2CCC(C(O)(c3ccccc3)c3ccccc3)CC2)cc1 (stereo not given) [FEXOFENADINE]	Compound NOT metabolized
COC(=O)Nc1nc2ccc(C(=O)c3ccccc3)cc2[nH]1 [MEBENDAZOLE]	Compound NOT metabolized
O=C(CCCN1CCC(O)(c2ccc(Cl)cc2)CC1)c1ccc(F)cc1 [HALOPERIDOL]	Compound NOT metabolized

conditions: bacteroides thetaiotaomicron, 12 h, 2 µM
Description: The drug is tested on Bacteroides thetaiotaomicron strain: 7330 for biotransformation. The drug concentrations were measured before and after a 12-h incubation by liquid-chromatography-coupled mass spectrometry (LC–MS)

Compound	Bacterial Biotransformation
CC(C)(C(=O)O)c1ccc(C(O)CCCN2CCC(C(O)(c3ccccc3)c3ccccc3)CC2)cc1 (stereo not given) [FEXOFENADINE]	Compound NOT metabolized
C#C[C@]1(OC(C)=O)CC[C@H]2[C@@H]3CCC4=C/C(=N/O)CC[C@@H]4[C@H]3CC[C@@]21CC [NORGESTIMATE]	Compound NOT metabolized
CCCN1C[C@H](CSC)C[C@@H]2c3cccc4[nH]cc(c34)C[C@H]21.CS(=O)(=O)O [PERGOLIDE MESYLATE]	Compound NOT metabolized
C=CCN1CC[C@]23c4c5ccc(O)c4O[C@H]2C(=O)CC[C@@]3(O)[C@H]1C5 [NALOXONE]	Compound metabolized
Cc1ccc(NC(=O)c2ccc(CN3CCN(C)CC3)cc2)cc1Nc1nccc(-c2cccnc2)n1 [IMATINIB]	Compound NOT metabolized
O=C(CCCN1CCC(O)(c2ccc(Cl)cc2)CC1)c1ccc(F)cc1 [HALOPERIDOL]	Compound NOT metabolized

experiment: The drug is tested on Eggerthella lenta strain: ATCC25559 for biotransformation. The drug concentrations were measured before and after a 12-h incubation by liquid-chromatography-coupled mass spectrometry (LC–MS); conditions: 2 µM

Compound	Bacterial Biotransformation
C#C[C@]1(OC(C)=O)CC[C@H]2[C@@H]3CCC4=C/C(=N/O)CC[C@@H]4[C@H]3CC[C@@]21CC [NORGESTIMATE]	Compound metabolized
CCCN1C[C@H](CSC)C[C@@H]2c3cccc4[nH]cc(c34)C[C@H]21.CS(=O)(=O)O [PERGOLIDE MESYLATE]	Compound NOT metabolized
C=CCN1CC[C@]23c4c5ccc(O)c4O[C@H]2C(=O)CC[C@@]3(O)[C@H]1C5 [NALOXONE]	Compound metabolized
Cc1ccc(NC(=O)c2ccc(CN3CCN(C)CC3)cc2)cc1Nc1nccc(-c2cccnc2)n1 [IMATINIB]	Compound NOT metabolized

experiment: The drug is tested on Anaerococcus hydrogenalis strain: DSM7454 for biotransformation. The drug concentrations were measured before and after a 12-h incubation by liquid-chromatography-coupled mass spectrometry (LC–MS); conditions: 2 µM

Compound	Bacterial Biotransformation
CC(C)(C(=O)O)c1ccc(C(O)CCCN2CCC(C(O)(c3ccccc3)c3ccccc3)CC2)cc1 (stereo not given) [FEXOFENADINE]	Compound NOT metabolized
C#C[C@]1(OC(C)=O)CC[C@H]2[C@@H]3CCC4=C/C(=N/O)CC[C@@H]4[C@H]3CC[C@@]21CC [NORGESTIMATE]	Compound NOT metabolized
CCCN1C[C@H](CSC)C[C@@H]2c3cccc4[nH]cc(c34)C[C@H]21.CS(=O)(=O)O [PERGOLIDE MESYLATE]	Compound NOT metabolized
C=CCN1CC[C@]23c4c5ccc(O)c4O[C@H]2C(=O)CC[C@@]3(O)[C@H]1C5 [NALOXONE]	Compound NOT metabolized
COC(=O)Nc1nc2ccc(C(=O)c3ccccc3)cc2[nH]1 [MEBENDAZOLE]	Compound NOT metabolized
Cc1ccc(NC(=O)c2ccc(CN3CCN(C)CC3)cc2)cc1Nc1nccc(-c2cccnc2)n1 [IMATINIB]	Compound NOT metabolized
O=C(CCCN1CCC(O)(c2ccc(Cl)cc2)CC1)c1ccc(F)cc1 [HALOPERIDOL]	Compound NOT metabolized

experiment: The drug is tested on Providencia alcalifaciens strain: DSM30120 for biotransformation. The drug concentrations were measured before and after a 12-h incubation by liquid-chromatography-coupled mass spectrometry (LC–MS); conditions: 2 µM

Compound	Bacterial Biotransformation
CC(C)(C(=O)O)c1ccc(C(O)CCCN2CCC(C(O)(c3ccccc3)c3ccccc3)CC2)cc1 (stereo not given) [FEXOFENADINE]	Compound NOT metabolized
C#C[C@]1(OC(C)=O)CC[C@H]2[C@@H]3CCC4=C/C(=N/O)CC[C@@H]4[C@H]3CC[C@@]21CC [NORGESTIMATE]	Compound NOT metabolized
COC(=O)Nc1nc2ccc(C(=O)c3ccccc3)cc2[nH]1 [MEBENDAZOLE]	Compound NOT metabolized
Cc1ccc(NC(=O)c2ccc(CN3CCN(C)CC3)cc2)cc1Nc1nccc(-c2cccnc2)n1 [IMATINIB]	Compound NOT metabolized
O=C(CCCN1CCC(O)(c2ccc(Cl)cc2)CC1)c1ccc(F)cc1 [HALOPERIDOL]	Compound NOT metabolized

experiment: The drug is tested on Eubacterium biforme strain: DSM3989 for biotransformation. The drug concentrations were measured before and after a 12-h incubation by liquid-chromatography-coupled mass spectrometry (LC–MS); conditions: holdemanella biformis, 2 µM

Compound	Bacterial Biotransformation
CC(C)(C(=O)O)c1ccc(C(O)CCCN2CCC(C(O)(c3ccccc3)c3ccccc3)CC2)cc1 (stereo not given) [FEXOFENADINE]	Compound NOT metabolized
C#C[C@]1(OC(C)=O)CC[C@H]2[C@@H]3CCC4=C/C(=N/O)CC[C@@H]4[C@H]3CC[C@@]21CC [NORGESTIMATE]	Compound metabolized
COC(=O)Nc1nc2ccc(C(=O)c3ccccc3)cc2[nH]1 [MEBENDAZOLE]	Compound NOT metabolized
Cc1ccc(NC(=O)c2ccc(CN3CCN(C)CC3)cc2)cc1Nc1nccc(-c2cccnc2)n1 [IMATINIB]	Compound NOT metabolized
O=C(CCCN1CCC(O)(c2ccc(Cl)cc2)CC1)c1ccc(F)cc1 [HALOPERIDOL]	Compound NOT metabolized

conditions: victivallis vadensis, 12 h, 2 µM
Description: The drug is tested on Victivallis vadensis strain: ATCC BAA-548 for biotransformation. The drug concentrations were measured before and after a 12-h incubation by liquid-chromatography-coupled mass spectrometry (LC–MS)

Compound	Bacterial Biotransformation
C#C[C@]1(OC(C)=O)CC[C@H]2[C@@H]3CCC4=C/C(=N/O)CC[C@@H]4[C@H]3CC[C@@]21CC [NORGESTIMATE]	Compound NOT metabolized
CCCN1C[C@H](CSC)C[C@@H]2c3cccc4[nH]cc(c34)C[C@H]21.CS(=O)(=O)O [PERGOLIDE MESYLATE]	Compound NOT metabolized
C=CCN1CC[C@]23c4c5ccc(O)c4O[C@H]2C(=O)CC[C@@]3(O)[C@H]1C5 [NALOXONE]	Compound NOT metabolized
COC(=O)Nc1nc2ccc(C(=O)c3ccccc3)cc2[nH]1 [MEBENDAZOLE]	Compound NOT metabolized

conditions: bacteroides eggerthii, 12 h, 2 µM
Description: The drug is tested on Bacteroides eggerthii strain: DSM20697 for biotransformation. The drug concentrations were measured before and after a 12-h incubation by liquid-chromatography-coupled mass spectrometry (LC–MS)

Compound	Bacterial Biotransformation
CC(C)(C(=O)O)c1ccc(C(O)CCCN2CCC(C(O)(c3ccccc3)c3ccccc3)CC2)cc1 (stereo not given) [FEXOFENADINE]	Compound NOT metabolized
C#C[C@]1(OC(C)=O)CC[C@H]2[C@@H]3CCC4=C/C(=N/O)CC[C@@H]4[C@H]3CC[C@@]21CC [NORGESTIMATE]	Compound NOT metabolized
CCCN1C[C@H](CSC)C[C@@H]2c3cccc4[nH]cc(c34)C[C@H]21.CS(=O)(=O)O [PERGOLIDE MESYLATE]	Compound NOT metabolized
C=CCN1CC[C@]23c4c5ccc(O)c4O[C@H]2C(=O)CC[C@@]3(O)[C@H]1C5 [NALOXONE]	Compound metabolized
COC(=O)Nc1nc2ccc(C(=O)c3ccccc3)cc2[nH]1 [MEBENDAZOLE]	Compound metabolized
Cc1ccc(NC(=O)c2ccc(CN3CCN(C)CC3)cc2)cc1Nc1nccc(-c2cccnc2)n1 [IMATINIB]	Compound NOT metabolized
O=C(CCCN1CCC(O)(c2ccc(Cl)cc2)CC1)c1ccc(F)cc1 [HALOPERIDOL]	Compound NOT metabolized

experiment: The drug is tested on Clostridium spiroforme strain: DSM1552 for biotransformation. The drug concentrations were measured before and after a 12-h incubation by liquid-chromatography-coupled mass spectrometry (LC–MS); conditions: thomasclavelia spiroformis, 2 µM

Compound	Bacterial Biotransformation
C#C[C@]1(OC(C)=O)CC[C@H]2[C@@H]3CCC4=C/C(=N/O)CC[C@@H]4[C@H]3CC[C@@]21CC [NORGESTIMATE]	Compound NOT metabolized
COC(=O)Nc1nc2ccc(C(=O)c3ccccc3)cc2[nH]1 [MEBENDAZOLE]	Compound NOT metabolized
Cc1ccc(NC(=O)c2ccc(CN3CCN(C)CC3)cc2)cc1Nc1nccc(-c2cccnc2)n1 [IMATINIB]	Compound NOT metabolized
O=C(CCCN1CCC(O)(c2ccc(Cl)cc2)CC1)c1ccc(F)cc1 [HALOPERIDOL]	Compound NOT metabolized

experiment: The drug is tested on Clostridium hathewayi strain: DSM13479 for biotransformation. The drug concentrations were measured before and after a 12-h incubation by liquid-chromatography-coupled mass spectrometry (LC–MS); conditions: hungatella hathewayi, 2 µM

Compound	Bacterial Biotransformation
C#C[C@]1(OC(C)=O)CC[C@H]2[C@@H]3CCC4=C/C(=N/O)CC[C@@H]4[C@H]3CC[C@@]21CC [NORGESTIMATE]	Compound NOT metabolized
COC(=O)Nc1nc2ccc(C(=O)c3ccccc3)cc2[nH]1 [MEBENDAZOLE]	Compound NOT metabolized
O=C(CCCN1CCC(O)(c2ccc(Cl)cc2)CC1)c1ccc(F)cc1 [HALOPERIDOL]	Compound NOT metabolized

experiment: The drug is tested on Bacteroides uniformis strain: ATCC8492 for biotransformation. The drug concentrations were measured before and after a 12-h incubation by liquid-chromatography-coupled mass spectrometry (LC–MS); conditions: 2 µM

Compound	Bacterial Biotransformation
CC(C)(C(=O)O)c1ccc(C(O)CCCN2CCC(C(O)(c3ccccc3)c3ccccc3)CC2)cc1 (stereo not given) [FEXOFENADINE]	Compound NOT metabolized
C#C[C@]1(OC(C)=O)CC[C@H]2[C@@H]3CCC4=C/C(=N/O)CC[C@@H]4[C@H]3CC[C@@]21CC [NORGESTIMATE]	Compound metabolized
CCCN1C[C@H](CSC)C[C@@H]2c3cccc4[nH]cc(c34)C[C@H]21.CS(=O)(=O)O [PERGOLIDE MESYLATE]	Compound NOT metabolized
C=CCN1CC[C@]23c4c5ccc(O)c4O[C@H]2C(=O)CC[C@@]3(O)[C@H]1C5 [NALOXONE]	Compound metabolized
COC(=O)Nc1nc2ccc(C(=O)c3ccccc3)cc2[nH]1 [MEBENDAZOLE]	Compound metabolized
Cc1ccc(NC(=O)c2ccc(CN3CCN(C)CC3)cc2)cc1Nc1nccc(-c2cccnc2)n1 [IMATINIB]	Compound NOT metabolized
